# Results from patent publication US11078168B2, “Substituted N-hydroxyamidinoheterocycles as modulators of indoleamine 2,3-dioxygenase” (PHENEX DISCOVERY VERWALTUNGS-GMBH, priority 2016, dated 2021).
# Target: T1, Indoleamine 2,3-dioxygenase (Homo sapiens, UniProt P14902)
# T1 construct: endogenous in cells; host or cells: SKOV-3 (ATCC HTB-77), stimulated with interferon gamma
# Assay: SKOV-3 cellular Indoleamine 2,3-dioxygenase assay
# Settings: SKOV-3 cells, 50 ng/ml Interferon gamma, 100 μM L-Tryptophan, 24 hours, N-Formylkynurenin fluorescence detection; read-out: cell based activity
# Protocol: SKOV-3 cellular Indoleamine 2,3-dioxygenase assay
# SKOV-3 cells were obtained from the American Type Culture Collection (ATCC® HTB-77™) and maintained in McCoy's medium (Pan Biotech) supplemented with 10% fetal bovine serum and 1% Penicilin/Streptomycin. Cells were kept at 37° C. in a humidified incubator with 5% CO2. For assay preparation, cells were seeded at a density of 2*10^5/ml into black clear bottom 96 well plates in 100 μl medium/well supplemented with 50 ng/ml Interferon gamma (eBioscience, Thermo Fisher Scientific). After cells fully adhered to the plate, dilution series of compounds were added in medium containing additional L-Tryptophan to a final L-Tryptophan concentration of 100 μM. The cells were incubated for 24 hours. Detection of produced N-Formylkynurenin was performed by addition of 3-Methylpiperidine to a final concentration of 200 mM. The plates were sealed and heated to 65° C. for 20 minutes in a water bath. After cooling the fluorescence of each well was recorded with a Victor™X4 (PerkinElmer) plate reader at an emission wavelength of 535 nm and excitation at 405 nm (Tomek et al.; Anal Bioanal Chem (2013) 405:2515-2524., Tomek et al.; Biochim Biophys Acta. 2015 September; 1850(9):1772-80).
# T1 sequence (P14902 whole entry): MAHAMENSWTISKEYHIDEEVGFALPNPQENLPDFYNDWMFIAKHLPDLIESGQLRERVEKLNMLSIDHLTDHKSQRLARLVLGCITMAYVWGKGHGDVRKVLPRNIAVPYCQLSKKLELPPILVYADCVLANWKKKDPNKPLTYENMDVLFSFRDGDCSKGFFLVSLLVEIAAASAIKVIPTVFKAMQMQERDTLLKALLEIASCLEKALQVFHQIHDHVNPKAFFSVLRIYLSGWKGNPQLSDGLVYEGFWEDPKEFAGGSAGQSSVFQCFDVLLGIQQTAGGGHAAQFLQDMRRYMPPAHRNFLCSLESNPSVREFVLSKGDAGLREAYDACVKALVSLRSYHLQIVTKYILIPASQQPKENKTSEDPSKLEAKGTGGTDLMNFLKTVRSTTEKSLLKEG
row,SMILES,IC50 [nM]
1,"CN1CCN(CCOc2nonc2C(=NO)Nc2ccc(F)c(Cl)c2)CC1 [10/1, N-(3-Chloro-4-fluorophenyl)-N′-hydroxy-4-(2-(4-methylpiperazin-1-yl)ethoxy)-1,2,5-oxadiazole-3-carboximidamide]",100 to 1000
2,NS(=O)(=O)CC(=O)NCCSc1nonc1C(=NO)Nc1cncc(C(F)(F)F)c1 [107/34],> 1000
3,CS(=O)(=O)Nc1ccc(C(=O)NCCSc2nonc2C(=NO)Nc2ccc(F)c(C(F)F)c2)cc1 [117/10],< 100
4,O=C(NCCSc1nonc1C(=NO)Nc1ccc(F)c(C(F)(F)F)c1)C1(O)CNC1 [123/1],100 to 1000
5,"Nc1nnc(NCCOc2nonc2C(=NO)Nc2ccc(F)c(Cl)c2)[nH]1 [Example 15, 4-(2-((5-Amino-4H-1,2,4-triazol-3-yl)amino)ethoxy)-N-(3-chloro-4-fluorophenyl)-N′-hydroxy-1,2,5-oxadiazole-3-carboximidamide]",100 to 1000
6,"CS(=O)(=O)CCCOc1nonc1C(=NO)Nc1ccc(F)c(Cl)c1 [20/1, N-(3-Chloro-4-fluorophenyl)-N′-hydroxy-4-(3-(methylsulfonyl)propoxy)-1,2,5-oxadiazole-3-carboximidamide]",100 to 1000
7,O=C(NCCSc1nonc1C(=NO)Nc1ccc(F)c(Cl)c1)c1ccnc2nn[nH]c12 [117/2],> 1000
8,"ON=C(Nc1ccc(F)c(Cl)c1)c1nonc1SCc1ccccc1 [Example 103, 4-(Benzylthio)—N-(3-chloro-4-fluorophenyl)-N′-hydroxy-1,2,5-oxadiazole-3-carboximidamide]",100 to 1000
9,CC(C)(C)OC(=O)NC1(CC(=O)NCCSc2nonc2C(=NO)Nc2ccc(F)c(C(F)F)c2)COC1 [117/20],< 100
10,"O=C(NCCOc1nonc1C(=NO)Nc1ccc(F)c(Cl)c1)N1C[C@@H](O)[C@@H](O)C1 [Example 18, (3S,4R)—N-(2-((4-(N-(3-Chloro-4-fluorophenyl)-N′-hydroxycarbamimidoyl)-1,2,5-oxadiazol-3-yl)oxy)ethyl)-3,4-dihydroxypyrrolidine-1-carboxamide]",100 to 1000
11,O=C(NCCSc1nonc1C(=NO)Nc1ccc(F)c(C(F)F)c1)c1ccc(-n2cnnn2)cc1 [107/27],< 100
12,CC(C)(O)C(O)C(=O)NCCSc1nonc1C(=NO)Nc1ccc(F)c(C(F)F)c1 (stereo not drawn) [107/1],< 100
13,NC(C(=O)NCCOc1nonc1C(=NO)Nc1ccc(F)c(Cl)c1)C(F)(F)F (stereo not drawn) [3/4],< 100
14,Nc1c(NCCSc2nonc2C(=NO)Nc2cccc(C(F)F)c2)c(=O)c1=O [102/1],< 100
15,O=C(NCCOc1nonc1C(=NO)Nc1ccc(F)c(Cl)c1)c1ccc2[nH]ccc2c1 [9/2],100 to 1000
16,N#Cc1ccc(C(=O)NCCSc2nonc2C(=NO)Nc2ccc(F)c(C(F)F)c2)cc1 [107/25],< 100
17,O=C(NCCOc1nonc1C(=NO)Nc1ccc(F)c(Cl)c1)c1n[nH]c(=O)[nH]1 [9/10],> 1000
18,O=C(NCCOc1nonc1C(=NO)Nc1ccc(F)c(Cl)c1)C1CC1 [9/3],< 100
19,O=C(NCCOc1nonc1C(=NO)Nc1ccc(F)c(Cl)c1)c1cnccn1 [9/4],100 to 1000
20,CC(=O)N1CC(O)(C(=O)NCCSc2nonc2C(=NO)Nc2ccc(F)c(C(F)F)c2)C1 [128/3],< 100
21,"CC(CSc1nonc1C(=NO)Nc1ccc(F)c(C(F)F)c1)NC(=O)CC(N)=O (single isomer, unassigned) [Example 115, N^1-(1-((4-(N-(3-(Difluoromethyl)-4-fluorophenyl)-N′-hydroxycarbamimidoyl)-1,2,5-oxadiazol-3-yl)thio)propan-2-yl)malonamide]",< 100
22,O=C(NCCOc1nonc1C(=NO)Nc1ccc(F)c(Cl)c1)C1(F)CNC1 [3/3],100 to 1000
23,"NC(=O)C(=O)NCCOc1nonc1C(=NO)Nc1ccc(F)c(Cl)c1 [Example 4, N^1-(2-((4-(N-(3-Chloro-4-fluorophenyl)-N′-hydroxycarbamimidoyl)-1,2,5-oxadiazol-3-yl)oxy)ethyl)oxalamide]",100 to 1000
24,"O=C(NCCOc1nonc1C(=NO)Nc1ccc(F)c(Cl)c1)c1nnn[nH]1 [Example 9, N-(2-((4-(N-(3-chloro-4-fluorophenyl)-N′-hydroxycarbamimidoyl)-1,2,5-oxadiazol-3-yl)oxy)ethyl)-1H-tetrazole-5-carboxamide]",> 1000
25,Cn1nc(C(=O)NCCSc2nonc2C(=NO)Nc2ccc(F)c(C(F)(F)F)c2)[nH]c1=O [117/16],< 100

# Results, then the compound that gave them:
row,IC50 [nM],SMILES
1,100 to 1000,"C[S+]([O-])c1nonc1C(=NO)Nc1ccc(F)c(Br)c1 (stereo not drawn) [Example 105, N-(3-Bromo-4-fluorophenyl)-N′-hydroxy-4-(methylsulfinyl)-1,2,5-oxadiazole-3-carboximidamide]"
2,100 to 1000,NS(=O)(=O)CC(=O)NCCOc1nonc1C(=NO)Nc1ccc(F)c(Cl)c1 [9/14]
3,< 100,"O=C(NCCSc1nonc1C(=NO)Nc1ccc(F)c(C(F)F)c1)C(O)CO (stereo not drawn) [Example 107, N-(2-((4-(N-(3-(Difluoromethyl)-4-fluorophenyl)-N′-hydroxycarbamimidoyl)-1,2,5-oxadiazol-3-yl)thio)ethyl)-2,3-dihydroxypropanamide]"
4,< 100,CC(C)(O)CC(=O)NCCSc1nonc1/C(=N/O)Nc1ccc(F)c(C(F)F)c1 [107/16]
5,100 to 1000,O=C(NCCSc1nonc1C(=NO)Nc1ccc(F)c(Cl)c1)c1n[nH]c(=O)[nH]1 [117/1]
6,< 100,"NS(=O)(=O)NCCSc1nonc1/C(=N/O)Nc1ccc(F)c(Br)c1 [Example 101, N-(3-Bromo-4-fluorophenyl)-N′-hydroxy-4-((2-(sulfamoylamino)ethyl)thio)-1,2,5-oxadiazole-3-carboximidamide]"
7,< 100,ON=C(Nc1ccc(F)c(Br)c1)c1nonc1SC1CC1 [Example 103/3]
8,100 to 1000,CN(CCOc1nonc1C(=NO)Nc1ccc(F)c(Cl)c1)S(N)(=O)=O [6/4]
9,< 100,NC(=O)CCS(=O)(=O)NCCSc1nonc1C(=NO)Nc1ccc(F)c(C(F)F)c1 [119/5]
10,< 100,CC1(C(=O)NCCSc2nonc2/C(=N/O)Nc2ccc(F)c(C(F)F)c2)CCN1 (stereo not drawn) [123/3]
11,< 100,CN(C)S(=O)(=O)NCCOc1nonc1C(=NO)Nc1ccc(F)c(Cl)c1 [6/6]
12,< 100,NS(=O)(=O)CC(=O)NCCSc1nonc1C(=NO)Nc1cc(Br)c(F)cc1F [117/22]
13,< 100,NS(=O)(=O)CCC(=O)NCCSc1nonc1C(=NO)Nc1cccc(Cl)c1 [107/15]
14,< 100,"CC(CSc1nonc1C(=NO)Nc1ccc(F)c(C(F)F)c1)NC(=O)CS(N)(=O)=O (single isomer, unassigned) [Example 114, N-(1-((4-(N-(3-(difluoromethyl)-4-fluorophenyl)-N′-hydroxycarbamimidoyl)-1,2,5-oxadiazol-3-yl)thio)propan-2-yl)-2-sulfamoylacetamide]"
15,100 to 1000,"O/N=C(\Nc1ccc(F)c(Br)c1)c1nonc1OCC(F)(F)F [8/3, N-(3-Bromo-4-fluorophenyl)-N′-hydroxy-4-(2,2,2-trifluoroethoxy)-1,2,5-oxadiazole-3-carboximidamide]"
16,< 100,"C[C@@H](CSc1nonc1/C(=N/O)Nc1ccc(F)c(Br)c1)NC(=O)CS(N)(=O)=O (single isomer, unassigned) [114/5]"
17,> 1000,"CC(CNS(N)(=O)=O)Oc1nonc1C(=NO)Nc1ccc(F)c(Cl)c1 (single isomer, unassigned) [Example 16, N-(3-Chloro-4-fluorophenyl)-N′-hydroxy-4-((1-(sulfamoylamino)propan-2-yl)oxy)-1,2,5-oxadiazole-3-carboximidamide]"
18,100 to 1000,"Nc1nnc(NCCSc2nonc2C(=NO)Nc2ccc(F)c(C(F)F)c2)[nH]1 [Example 110, 4-((2-((5-Amino-4H-1,2,4-triazol-3-yl)amino)ethyl)thio)—N-(3-(difluoromethyl)-4-fluorophenyl)-N′-hydroxy-1,2,5-oxadiazole-3-carboximidamide]"
19,< 100,"CS(=O)(=O)CCS(=O)(=O)NCCSc1nonc1C(=NO)Nc1ccc(F)c(C(F)F)c1 [100/1, N-(3-(Difluoromethyl)-4-fluorophenyl)-N′-hydroxy-4-((2-((2-(methylsulfonyl)ethyl)sulfonamido)ethyl)thio)-1,2,5-oxadiazole-3-carboximidamide]"
20,< 100,"NS(=O)(=O)NCCSc1nonc1C(=NO)Nc1cccc(C(F)F)c1 [Example 112, N-(3-(Difluoromethyl)phenyl)-N′-hydroxy-4-((2-(sulfamoylamino)ethyl)thio)-1,2,5-oxadiazole-3-carboximidamide]"
21,< 100,"CN1CCC1C(=O)NCCSc1nonc1C(=NO)Nc1ccc(F)c(C(F)F)c1 (stereo not drawn) [Example 124/1, N-(2-((4-(N-(3-(Difluoromethyl)-4-fluorophenyl)-N′-hydroxycarbamimidoyl)-1,2,5-oxadiazol-3-yl)thio)ethyl)-1-methylazetidine-2-carboxamide]"
22,100 to 1000,Cn1nc(C(=O)NCCSc2nonc2C(=NO)Nc2ccc(F)c(C(F)F)c2)[nH]c1=O [117/17]
23,< 100,NS(=O)(=O)c1ccc(C(=O)NCCSc2nonc2C(=NO)Nc2cccc(C(F)F)c2)cc1 [117/15]
24,< 100,O=C(NCCSc1nonc1C(=NO)Nc1ccc(F)c(C(F)F)c1)C1CCN1 (stereo not drawn) [123/4]
25,< 100,N#Cc1cccc(N/C(=N\O)c2nonc2SCCNC(=O)CS(N)(=O)=O)c1 [107/12]
26,100 to 1000,NC(=O)N1CC(O)(C(=O)NCCSc2nonc2C(=NO)Nc2ccc(F)c(C(F)F)c2)C1 [128/4]
